This passage reports IC50 results from ChEMBL document CHEMBL3769368, “Semi-synthesis and anti-tumor evaluation of novel 25-hydroxyprotopanaxadiol derivatives as apoptosis inducing agents” (Medchemcomm, 2015).

The nature of test [1]: Antiproliferative activity against human DU145 cells after 48 hrs by MTT assay. Conditions: DU-145, 48 h. It is filed as functional, cell-based.
Test [2] is described as follows: Antiproliferative activity against human BGC823 cells after 48 hrs by MTT assay. Conditions: BGC-823, 48 h. Type of test: functional, cell-based.
Test [3] in a line: Antiproliferative activity against human alpha-2 cells after 48 hrs by MTT assay. Type of test: functional, cell-based.
The subject of test [4] is MDA-MB-231. The test can be described thus: Antiproliferative activity against human MDA-MB-231 cells after 48 hrs by MTT assay. Type of test: functional, cell-based. Conditions: MDA-MB-231, 48 h.
Test [5] in a line: Antiproliferative activity against human PC3 cells after 48 hrs by MTT assay. Conditions: PC-3, 48 h. Type of test: functional, cell-based.
The nature of test [6]: Cytotoxicity against human IOSE-144 cells after 48 hrs by MTT assay. Conditions: IOSE-144, 48 h. Type of test: cell-based.

SMILES strings stand for the structures.

As for `C[C@H](NC(=O)OC(C)(C)C)C(=O)O[C@H]1CC[C@]2(C)[C@H]3C[C@@H](O)[C@@H]4[C@@H]([C@](C)(O)CCCC(C)(C)O)CC[C@@]4(C)[C@]3(C)CC[C@H]2C1(C)C`, the IC50 in test [1] was 23 µM; in test [2] it was 18 µM; in test [3], 24 µM; in test [4], 17 µM; in test [5] it was 22 µM; in test [6] it was greater than 100 µM.

Regarding `CC(C)(O)CCC[C@@](C)(O)[C@H]1CC[C@]2(C)[C@@H]1[C@H](OC(=O)[C@H](Cc1ccc(O)cc1)NC(=O)OC(C)(C)C)C[C@@H]1[C@@]3(C)CC[C@H](O)C(C)(C)[C@@H]3CC[C@]12C`, the IC50 in test [1] was greater than 100 µM; in test [2] it was 90 µM; in test [3], 84 µM; in test [4], 29 µM; in test [5] it was 63 µM; in test [6], greater than 100 µM.

Turning to `C[C@@H](O)[C@H](N)C(=O)O[C@H]1CC[C@]2(C)[C@H]3C[C@@H](O)[C@@H]4[C@@H]([C@](C)(O)CCCC(C)(C)O)CC[C@@]4(C)[C@]3(C)CC[C@H]2C1(C)C`, the IC50 is 8.7 µM in test [1]; 11 µM in test [2]; 12 µM in test [3]; 5.4 µM in test [4]; 8.9 µM in test [5]; greater than 100 µM in test [6].

For the compound `CC(C)(O)CCC[C@@](C)(O)[C@H]1CC[C@]2(C)[C@@H]1[C@H](OC(=O)[C@H](CCC(=O)OCc1ccccc1)NC(=O)OC(C)(C)C)C[C@@H]1[C@@]3(C)CC[C@H](OC(=O)[C@H](CCC(=O)OCc4ccccc4)NC(=O)OC(C)(C)C)C(C)(C)[C@@H]3CC[C@]12C`, the IC50 in test [1] was greater than 100 µM; in test [2], greater than 100 µM; in test [3] it was 61 µM; in test [4], 89 µM; in test [5], greater than 100 µM; in test [6], greater than 100 µM.

In the case of `CC(C)(O)CCC[C@@](C)(O)[C@H]1CC[C@]2(C)[C@@H]1[C@H](OC(=O)[C@H](Cc1cnc[nH]1)NC(=O)OC(C)(C)C)C[C@@H]1[C@@]3(C)CC[C@H](O)C(C)(C)[C@@H]3CC[C@]12C`, the IC50 in test [1] is greater than 100 µM; in test [2] it was 38 µM; in test [3], 72 µM; in test [4] it was 23 µM; in test [5] it was 86 µM; in test [6], greater than 100 µM.

Consider `CC(C)C[C@H](NC(=O)OC(C)(C)C)C(=O)O[C@H]1CC[C@]2(C)[C@H]3C[C@@H](O)[C@@H]4[C@@H]([C@](C)(O)CCCC(C)(C)O)CC[C@@]4(C)[C@]3(C)CC[C@H]2C1(C)C`, for which the IC50 in test [1] is 26 µM; in test [2], 24 µM; in test [3] it was 32 µM; in test [4], 17 µM; in test [5], 41 µM; in test [6], greater than 100 µM.

For the compound `CC[C@H](C)[C@H](NC(=O)OC(C)(C)C)C(=O)O[C@H]1CC[C@]2(C)[C@H]3C[C@@H](O)[C@@H]4[C@@H]([C@](C)(O)CCCC(C)(C)O)CC[C@@]4(C)[C@]3(C)CC[C@H]2C1(C)C`, the IC50 in test [1] was 58 µM; in test [2], 22 µM; in test [3] it was 36 µM; in test [4] it was 18 µM; in test [5], 24 µM; in test [6], greater than 100 µM.

For the compound `CC(C)C[C@H](NC(=O)OC(C)(C)C)C(=O)O[C@H]1CC[C@]2(C)[C@H]3C[C@@H](OC(=O)[C@H](CC(C)C)NC(=O)OC(C)(C)C)[C@@H]4[C@@H]([C@](C)(O)CCCC(C)(C)O)CC[C@@]4(C)[C@]3(C)CC[C@H]2C1(C)C`, the IC50 in test [1] is greater than 100 µM; in test [2], greater than 100 µM; in test [3], 73 µM; in test [4] it was greater than 100 µM; in test [5], greater than 100 µM; in test [6] it was greater than 100 µM.
